Data reported in article PMC5066209, “Multiple cellobiohydrolases and cellobiose phosphorylases cooperate in the ruminal bacterium Ruminococcus albus 8 to degrade cellooligosaccharides” (Scientific Reports, 2016).

Legend:
Ra3055 (WT) = molecular target: T1, Ra3055 (WT) (Hominimerdicola alba, UniProt E9SHH5); experiment: isothermal titration calorimetry; format: binding; details: 50 mM sodium phosphate, 150 mM NaCl, pH 7.5; single-site fit
T1 construct: gene CUS_6909; full-length multimodular CBM4_9 - Ig-like - GH9 - CBM37
T1 sequence (E9SHH5 entry or part of it): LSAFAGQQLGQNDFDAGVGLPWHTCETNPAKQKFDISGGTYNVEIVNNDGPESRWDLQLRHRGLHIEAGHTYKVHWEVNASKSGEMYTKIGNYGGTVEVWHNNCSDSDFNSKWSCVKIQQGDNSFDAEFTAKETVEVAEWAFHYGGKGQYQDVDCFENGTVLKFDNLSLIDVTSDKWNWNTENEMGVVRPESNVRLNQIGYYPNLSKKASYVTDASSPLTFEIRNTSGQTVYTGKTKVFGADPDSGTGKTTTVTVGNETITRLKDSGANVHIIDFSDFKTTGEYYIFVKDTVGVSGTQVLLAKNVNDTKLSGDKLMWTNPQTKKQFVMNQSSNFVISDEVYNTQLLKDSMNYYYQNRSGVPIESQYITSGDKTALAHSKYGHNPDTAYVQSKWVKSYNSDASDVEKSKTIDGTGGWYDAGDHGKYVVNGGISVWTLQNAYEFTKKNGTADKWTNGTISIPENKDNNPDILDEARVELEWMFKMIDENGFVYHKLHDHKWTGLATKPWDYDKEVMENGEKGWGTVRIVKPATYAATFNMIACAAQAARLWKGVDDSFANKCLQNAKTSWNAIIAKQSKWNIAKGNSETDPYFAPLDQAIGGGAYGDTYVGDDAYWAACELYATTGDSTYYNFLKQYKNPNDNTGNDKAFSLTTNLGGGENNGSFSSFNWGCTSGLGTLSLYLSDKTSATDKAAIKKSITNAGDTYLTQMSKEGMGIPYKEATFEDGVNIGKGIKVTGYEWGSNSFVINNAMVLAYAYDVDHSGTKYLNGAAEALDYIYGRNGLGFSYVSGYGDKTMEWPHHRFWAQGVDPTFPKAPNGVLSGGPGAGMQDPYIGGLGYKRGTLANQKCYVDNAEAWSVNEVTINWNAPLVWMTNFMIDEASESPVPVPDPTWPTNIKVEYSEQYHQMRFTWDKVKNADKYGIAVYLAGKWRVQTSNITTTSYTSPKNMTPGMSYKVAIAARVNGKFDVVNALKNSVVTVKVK

Ra3055 TM1 [1] = molecular target: T2, Ra3055 TM1 (Hominimerdicola alba, UniProt E9SHH5); experiment: isothermal titration calorimetry; format: binding; details: 50 mM sodium phosphate, 150 mM NaCl, pH 7.5; single-site fit
T2 construct: gene CUS_6909; truncation without N-terminal CBM4_9 (Ig-like - GH9 - CBM37); pET-46, E. coli
T2 sequence (E9SHH5 entry or part of it): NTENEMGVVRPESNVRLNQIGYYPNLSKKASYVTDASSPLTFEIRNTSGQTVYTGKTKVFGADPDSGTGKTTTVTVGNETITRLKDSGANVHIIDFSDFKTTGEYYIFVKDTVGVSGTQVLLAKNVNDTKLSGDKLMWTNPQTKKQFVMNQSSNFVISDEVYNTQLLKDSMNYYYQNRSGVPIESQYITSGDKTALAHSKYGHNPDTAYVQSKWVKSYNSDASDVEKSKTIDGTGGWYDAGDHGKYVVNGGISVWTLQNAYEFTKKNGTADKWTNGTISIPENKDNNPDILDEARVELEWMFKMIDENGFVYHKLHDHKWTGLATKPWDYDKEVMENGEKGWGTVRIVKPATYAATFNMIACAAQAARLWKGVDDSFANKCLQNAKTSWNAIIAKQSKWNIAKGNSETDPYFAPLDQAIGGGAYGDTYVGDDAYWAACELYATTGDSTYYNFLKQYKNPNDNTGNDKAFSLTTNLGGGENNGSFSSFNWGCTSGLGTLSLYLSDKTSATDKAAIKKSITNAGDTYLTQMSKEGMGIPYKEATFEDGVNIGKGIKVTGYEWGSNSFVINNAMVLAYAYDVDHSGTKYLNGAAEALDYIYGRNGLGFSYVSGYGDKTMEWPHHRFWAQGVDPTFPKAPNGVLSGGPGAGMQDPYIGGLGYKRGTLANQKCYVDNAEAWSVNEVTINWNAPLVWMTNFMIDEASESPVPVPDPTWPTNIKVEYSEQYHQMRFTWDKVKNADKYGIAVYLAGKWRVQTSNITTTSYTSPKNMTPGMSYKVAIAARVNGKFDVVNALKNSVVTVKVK

Ra3055 TM2 [2] = molecular target: T3, Ra3055 TM2 (Hominimerdicola alba, UniProt E9SHH5); experiment: isothermal titration calorimetry; format: binding; details: 50 mM sodium phosphate, 150 mM NaCl, pH 7.5; single-site fit
T3 construct: gene CUS_6909; truncation without C-terminal CBM37 (CBM4_9 - Ig-like - GH9); pET-46, E. coli
T3 sequence (E9SHH5 entry or part of it): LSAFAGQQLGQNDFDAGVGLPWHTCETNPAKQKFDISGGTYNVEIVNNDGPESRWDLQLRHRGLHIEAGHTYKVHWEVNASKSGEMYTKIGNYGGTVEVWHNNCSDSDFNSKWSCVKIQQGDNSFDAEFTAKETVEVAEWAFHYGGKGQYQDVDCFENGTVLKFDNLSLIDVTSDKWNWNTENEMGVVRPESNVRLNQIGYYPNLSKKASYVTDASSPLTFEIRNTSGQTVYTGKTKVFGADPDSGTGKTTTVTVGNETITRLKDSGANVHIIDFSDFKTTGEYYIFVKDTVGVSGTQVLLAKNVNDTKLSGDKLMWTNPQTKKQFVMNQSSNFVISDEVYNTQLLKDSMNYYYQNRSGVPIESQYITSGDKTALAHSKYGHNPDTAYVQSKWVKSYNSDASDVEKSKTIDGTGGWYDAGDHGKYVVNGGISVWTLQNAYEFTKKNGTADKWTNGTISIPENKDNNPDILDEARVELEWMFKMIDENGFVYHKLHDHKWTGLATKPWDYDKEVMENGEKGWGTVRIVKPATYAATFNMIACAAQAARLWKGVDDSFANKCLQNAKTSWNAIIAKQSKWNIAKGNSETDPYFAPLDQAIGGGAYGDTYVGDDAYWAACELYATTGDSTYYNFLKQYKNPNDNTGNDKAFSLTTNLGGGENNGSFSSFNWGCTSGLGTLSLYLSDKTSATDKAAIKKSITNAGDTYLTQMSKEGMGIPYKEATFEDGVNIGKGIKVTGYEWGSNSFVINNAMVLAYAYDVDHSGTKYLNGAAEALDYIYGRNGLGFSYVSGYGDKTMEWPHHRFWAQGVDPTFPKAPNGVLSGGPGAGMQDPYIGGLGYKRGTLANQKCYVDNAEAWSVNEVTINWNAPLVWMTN

Ra3055 TM3 [3] = molecular target: T4, Ra3055 TM3 (Hominimerdicola alba, UniProt E9SHH5); experiment: isothermal titration calorimetry; format: binding; details: 50 mM sodium phosphate, 150 mM NaCl, pH 7.5; single-site fit
T4 construct: gene CUS_6909; truncation to Ig-like - GH9 (no CBM4_9, no CBM37); pET-46, E. coli
T4 sequence (E9SHH5 entry or part of it): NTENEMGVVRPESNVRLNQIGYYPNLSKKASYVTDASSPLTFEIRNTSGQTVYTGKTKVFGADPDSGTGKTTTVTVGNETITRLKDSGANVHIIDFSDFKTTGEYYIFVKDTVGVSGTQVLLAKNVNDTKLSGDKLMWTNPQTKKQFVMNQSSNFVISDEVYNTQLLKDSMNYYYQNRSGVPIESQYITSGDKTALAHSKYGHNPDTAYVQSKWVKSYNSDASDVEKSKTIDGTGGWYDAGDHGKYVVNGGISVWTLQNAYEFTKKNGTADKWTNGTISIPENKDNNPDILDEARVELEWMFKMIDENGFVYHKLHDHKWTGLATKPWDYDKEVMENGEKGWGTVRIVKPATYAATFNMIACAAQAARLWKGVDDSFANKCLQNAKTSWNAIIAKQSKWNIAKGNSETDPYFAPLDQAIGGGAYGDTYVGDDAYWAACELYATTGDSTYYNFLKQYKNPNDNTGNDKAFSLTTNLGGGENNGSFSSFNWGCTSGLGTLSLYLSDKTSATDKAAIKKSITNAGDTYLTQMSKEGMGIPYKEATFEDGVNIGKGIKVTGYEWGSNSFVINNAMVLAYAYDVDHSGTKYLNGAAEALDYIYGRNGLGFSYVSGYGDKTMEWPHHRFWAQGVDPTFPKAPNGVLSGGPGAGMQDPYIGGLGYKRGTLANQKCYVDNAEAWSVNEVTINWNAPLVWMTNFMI

Ra3055 TM2 [4] = molecular target: T3, Ra3055 TM2; experiment: cellobiose release by HPAEC-PAD, Michaelis-Menten fit; format: biochemical; details: 0.01-30 mM cellotetraose, 10 min; pH and temperature of kinetics not stated
Text: cellobiose release by HPAEC-PAD, Michaelis-Menten fit on Ra3055 TM2

Ra3055 TM3 [5] = molecular target: T4, Ra3055 TM3; experiment: as above; format: biochemical; details: 0.01-30 mM cellotetraose, 10 min; pH and temperature of kinetics not stated
Text: cellobiose release by HPAEC-PAD, Michaelis-Menten fit on Ra3055 TM3

Ra3055 TM4 = molecular target: T5, Ra3055 TM4 (Hominimerdicola alba, UniProt E9SHH5); experiment: as above; format: biochemical; details: 0.01-30 mM cellotetraose, 10 min; pH and temperature of kinetics not stated
T5 construct: gene CUS_6909; GH9 catalytic domain only; pET-46, E. coli
T5 sequence (E9SHH5 entry or part of it): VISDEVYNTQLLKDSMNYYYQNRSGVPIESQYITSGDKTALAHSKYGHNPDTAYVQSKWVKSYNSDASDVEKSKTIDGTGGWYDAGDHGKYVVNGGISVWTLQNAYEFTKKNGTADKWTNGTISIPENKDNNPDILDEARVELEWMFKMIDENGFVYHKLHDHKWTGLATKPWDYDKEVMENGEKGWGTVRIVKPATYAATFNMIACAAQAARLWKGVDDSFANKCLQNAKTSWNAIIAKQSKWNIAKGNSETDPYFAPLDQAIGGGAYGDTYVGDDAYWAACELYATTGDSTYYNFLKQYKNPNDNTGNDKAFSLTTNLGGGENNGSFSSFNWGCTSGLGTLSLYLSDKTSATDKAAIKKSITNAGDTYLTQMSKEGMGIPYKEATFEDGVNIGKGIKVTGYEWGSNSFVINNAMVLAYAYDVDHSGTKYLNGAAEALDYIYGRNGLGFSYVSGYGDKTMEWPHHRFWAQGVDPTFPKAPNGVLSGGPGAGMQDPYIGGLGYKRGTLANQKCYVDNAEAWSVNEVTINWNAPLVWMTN
Text: cellobiose release by HPAEC-PAD, Michaelis-Menten fit on Ra3055 TM4

Ra3055 TM1 [6] = molecular target: T2, Ra3055 TM1; experiment: as above; format: biochemical; details: 0.01-30 mM cellotetraose, 10 min; pH and temperature of kinetics not stated
Text: cellobiose release by HPAEC-PAD, Michaelis-Menten fit on Ra3055 TM1

Ka (Ra3055 (WT)) | Ka (Ra3055 TM1 [1]) | Ka (Ra3055 TM2 [2]) | Ka (Ra3055 TM3 [3]) | Km (Ra3055 TM2 [4]) [mM] | Km (Ra3055 TM3 [5]) [mM] | Km (Ra3055 TM4) [mM] | Km (Ra3055 TM1 [6]) [mM] | SMILES
2.94E4±7.38E3 | 6.38E5±1.57E5 | 3.49E4±4.59E3 | 5.06E5±4.41E4 |  |  |  |  | OC[C@H]1O[C@@H](O[C@H]2[C@H](O)[C@@H](O)[C@H](O[C@H]3[C@H](O)[C@@H](O)[C@H](O[C@H]4[C@H](O)[C@@H](O)[C@H](O[C@H]5[C@H](O)[C@@H](O)C(O)O[C@@H]5CO)O[C@@H]4CO)O[C@@H]3CO)O[C@@H]2CO)[C@H](O)[C@@H](O)[C@@H]1O (some centres unmarked) [G5, cellopentaose]
 |  |  |  | 5.6 ± 0.9 | 2.9 ± 0.1 | 7.9 ± 3.6 | 4.5 ± 0.3 | OC[C@H]1O[C@@H](O[C@H]2[C@H](O)[C@@H](O)[C@H](O[C@H]3[C@H](O)[C@@H](O)[C@H](O[C@H]4[C@H](O)[C@@H](O)C(O)O[C@@H]4CO)O[C@@H]3CO)O[C@@H]2CO)[C@H](O)[C@@H](O)[C@@H]1O (some centres unmarked) [G4, cellotetraose]
